Test results: patent publication US8575068B2, “Pyrazinothiazines having herbicidal action” (BASF SE, priority 2010, dated 2013)

Test system: Galium aparine
Assay: Greenhouse post-emergence herbicidal activity against GALAP
Type: in vivo
Details: application rate 0.5 kg/ha, scale 0 to 100
From the text: The seeds of the test plants were sown separately for each species. For the post-emergence treatment, the test plants were first grown to a height of 3 to 15 cm, depending on the plant habit, and only then treated with the active ingredients which had been suspended or emulsified in water. For this purpose, the test plants were either sown directly and grown in the same containers, or they were first grown separately as seedlings and transplanted into the test containers a few days prior to treatment. Depending on the species, the plants were kept at 10-25° C. or 20-35° C. The test period extended over 2 to 4 weeks. During this time, the plants were tended, and their response to the individual treatments was evaluated. Evaluation was carried out using a scale from 0 to 100. 100 means no emergence of the plants, or complete destruction of at least the aerial moieties, and 0 means no damage, or normal course of growth. A good herbicidal activity is given at values of at least 70 and a very good herbicidal activity is given at values of at least 85. The plants used in the greenhouse experiments belonged to the following species: [table]

COCCOc1cccc(C2=C(O)c3nccnc3N(CC(F)F)S2(=O)=O)c1C(F)(F)F [I-6, 1-(2,2-difluoroethyl)-3-[3-(2-methoxyethoxy)-2-(trifluoromethyl)phenyl]-2,2-dioxo-pyrazino[2,3-c]thiazin-4-ol]
herbicidal activity against GALAP: very good (a very good herbicidal activity is given at values of at least 85)
